Reference: patent US20260234159A1, “SMALL MOLECULE TREATMENT OF FATTY LIVER DISEASE AND HCC” (SCANDIEDGE THERAPEUTICS AB, priority 2023, published 2026)
Like-named read-outs stand apart in the source and are kept apart here.

What was measured:
[1] = tested on: HepG2 cells; experiment: Triglyceride (TAG) measurement assay, one week steatosis model; type: cell-based, human; settings: Homo sapiens
Protocol: (§1) HepG2 wild type cells were purchased from genome engineering company Synthego. Cells were maintained with Roswell Park Memorial Institute growth media, RPMI, 1640 (R2405, Sigma-Aldrich) and supplemented with 10% fetal bovine serum (FBS, F7524, Sigma-Aldrich), 1% penicillin-streptomycin (P/S, P4333, Sigma-Aldrich). Steatosis induction media was prepared as high glucose Dulbecco's Modified Eagle Media (DMEM, D0819, Sigma-Aldrich) with 10% FBS, 1% P/S media supplemented with 10 μg/ml insulin (I9278, Sigma-Aldrich), and 10 μM T0901317 (T2320, Sigma-Aldrich). HepG2 cells were seeded 6×10^4 cells per well for 96-well plate and 1×10^6 cells per well for 6-well plate. HepG2 cells were incubated with steatosis induce media (SM) for one week by 3 day+2 day+2 day with total three times media exchange.
HepG2 cells were seeded at 6×10^4 cells per well into 96 well plate and induced steatosis for one week with 10 μM of target drugs. After steatosis induction, cells were washed with 200 μl of phosphate buffered saline (PBS) and triglyceride contents was measured by Triglyceride Assay Kit—Quantification (ab65336, Abcam) following manufacturer's instruction. Optical density (O.D) values were detected with microplate reader at 570 nm (Hidex Sense Beta Plus).
(§2) HepG2 cells were seeded at 60,000 cells per well in 96 well plate. Using steatosis induce media, the cells were treated with 10 μM of target drugs for one week. The media was changed 3 times at day 0, day 3 and day 5. TAG assay was performed using MAK266-1KT SDS Triglyceride Quantification Colorimetric kit and cell viability analysis was performed using MTT assay.

[2] = MTT cell viability after one week steatosis (ranking of target molecules); type: cell-based, human; settings: human, HepG2 cells (wild type); HepG2, 10 μM, one week steatosis induce media, MTT; Control 100.00
Protocol: as §1, §2

[3] = MTT cell viability / IC50 in growth media; type: cell-based, human; settings: human, HepG2 cells; 10 μM, treatment for 2 days
Protocol: (§3) The cytotoxic effects of the synthesized drugs on the HepG2 cells were tested by MTT (Thiazolyl Blue Tetrazolium Bromide) method. HepG2 cells were seeded 2×10^4 cells per well in 96-well plate in 200 μL growth media. […] After the incubation period, 5 mg/ml MTT (M2128, Sigma-Aldrich) solution in PBS (10 μL) was added to each well. After 1 hr, the MTT solution and all media were removed from the wells. 100 μl of DMSO was added and mixed to dissolve the formazan crystals. Cell viability was analysed by measuring the absorbance of the dissolved formazan in a microplate reader at a wavelength of 570 nm with microplate reader (Hidex Sense Beta Plus).
(§4) HepG2 cells were maintained and used with RPMI 1640 (R2405, Sigma-Aldrich) supplemented with 10% fetal bovine serum (F7524, Sigma-Aldrich), 1% P/S (P4333, Sigma-Aldrich). 20,000 cells per well of HepG2 cells were seeded into a 96-well plate and triplicated for MTT assay and LDH assay. Cell viability was measured by MTT assay (M6494, ThermoFisher) and cytotoxicity was measured by LDH assay kit (ab65393, abcam) by following manufacturer's instructions. Optical density (O.D) was numerated using a microplate reader (Hidex Sense Meta Plus).

[4] = tested on: HepG2 cells; experiment: MTT cell viability / IC50 in growth media; type: cell-based, human
Protocol: as §3, §4

[5] = tested on: JNK1/2/3; experiment: Western blot, JNK1/2/3 P54 and p46 isoforms; type: cell-based, human; settings: 10 μM, 2 days
Protocol: HepG2 cells were seeded into a 6-well plate at 400,000 cells per well. After treatment with 10 μM of JNK-IN-5A and its derivatives for two days, lysates were harvested with CelLytic M (C2978, Sigma-Aldrich). […] SDS PAGE were performed using Mini-PROTEAN® TGX™ Precast Gels (Bio-Rad) and transferred using Trans-Blot® Turbo™ Transfer System (Bio-Rad). […] ImageQuantTMLAS 500 (29-0050-63, GE) was used to detect protein bands.

[6] = tested on: HepG2 cells; experiment: FACs analysis with PI staining (cell cycle); type: cell-based, human; settings: PI FACs, 10 μM, 2 days
Protocol: 400,000 HepG2 cells were seeded in a 6-well plated and treated with 10 μM of the compounds for 2 days. Cells were fixed with 70% ethanol and stained with 50 μg/ml PI. Prepared cells were analysed using BD FACS Canto II Flow Cytometry system at PE-A channel 10,000 cells per group. The data was histogram plotted with BD FACSDiva 9.0.

[7] = tested on: HepG2 cells; experiment: Mitochondrial membrane potential assay (TMRE); type: cell-based, human; settings: 10 μM, one day
Protocol: HepG2 cells were seeded into a 6-well plate at 400,000 cells per well. After treatment with the compounds at desired concentration and time, TMRE (ab113852, abcam), Autophagy (ab139484, abcam), ROS (ab113851, abcam), and Lipid peroxidation (ab243377, abcam) assay were performed according to manufacturer's instructions. Fluorescence images were taken using ZOE™ Fluorescent Cell Imager (Biorad) and ROI of fluorescence intensity was measured and calculated by Image J. For microplate reader florescence assay, 40,000 of HepG2 cells were seeded into a 96-well plate and triplicated. GFP (Ex480 nm, Em530 nm) and RFP (Ex549 nm, Em574 nm) were measured using a microplate reader (Hidex Sense Meta Plus).

[8] = tested on: HepG2 cells; experiment: Invasion assay (transwell); type: cell-based, human; settings: Homo sapiens, HepG2, 24 hr, read-out: invasiveness reduced by
Protocol: The effects of the treatment with the compounds on the invasion ability of HepG2 and Huh7 cells were determined by 8 μm pores transwell chamber (Corning™ 3464, USA).
(§5) Transwell membrane was coated with 100 μl collagen (Sigma C3867, USA) diluted with PBS to a concentration of 1 mg/ml. After overnight incubation at 4° C., the collagen solution was discarded and the membrane was washed with PBS. 100,000 cells in 200 μl serum free media together with the tested compounds were added into the upper well and 600 μl of 10% FBS supplemented growth media was added to the lower well as an invasive attractant in a 24-well plate. Cells were incubated at 37° C. in a CO2 incubator for one day. The cells were fixed with 3.7% formaldehyde for 30 minutes at room temperature and washed with PBS twice. The cells were stained with 1% crystal violet in PBS for 20 minutes and residual cells in inner membrane were swabbed gently with a cotton swab. Invaded cells located at the outer membrane were imaged by ZOE Fluorescent Cell Imager (Bio-Rad, USA) and counted by image. For wound healing assay, 100,000 cells per well were seeded into 24-well plates and grown until 95-100% confluent. Linear wound was created by using a 200 μl pipette tip. Image was recorded at the time point of day 0 until control group wound closure with 1 μM of compounds by ZOE Fluorescent Cell Imager (Bio-Rad, USA). Wound areas were measured using ImageJ software.

[9] = tested on: HepG2 cells; experiment: Wound healing assay; type: cell-based; settings: Homo sapiens, HepG2, 96 h, day 4, untreated 100% wound closure, read-out: wound healing delayed by
Protocol: as §5

[10] = In vivo biosafety study in rats: histopathological and immunohistochemical examination; set-up: species or system Sprague Dawley male rats; settings: 30 mg/kg, seven days
Protocol: In vivo biosafety studies. Healthy Sprague Dawley male rats (12 weeks old, 250-280 g) were obtained from Atatürk University Experimental Research Center ([…] Turkey) and housed under standard environmental conditions (temperature 20° C.-25° C., humidity 50±20% and 12-hour light/dark diurnal cycle). Food and water were available ad libitum. Rats were randomly separated into one control group and two experimental groups (30 mg/kg/day BX-912 or JNK-IN-5A, n=5). […] The control group were received the same amount of vehicle solution only. After 7 days, rats were anaesthetized, and blood samples were collected from the abdominal aorta for biochemical and haematological analysis. The plasma was separated and stored at -80° C. for further analysis. Major organs such as heart, kidney, liver, muscle, adipose, intestine (duodenum, ileum, jejunum), pancreas, colon, and stomach were collected from all the animals for further analysis. Selected organs were fixed in 10% neutral buffered formalin for histopathological examination. Histopathological examination. […] Immunohistochemical examination. […] Slides were counter stained with hematoxylin.

[11] = tested on: polychromatic erythrocytes; experiment: Micronucleus frequencies (MNPCEs) as genotoxicity endpoint; type: in vivo, Sprague Dawley male rats; settings: 30 mg/kg, seven days
Protocol: In addition to sampling for biochemical and haematological analysis, one drop of blood samples was obtained from the animals for evaluating micronucleus frequencies as genotoxicity endpoint at the end of the experiments. Three different smears of each rat were prepared using pre-coded and cold slides, then the slides air-dried at room temperature, and fixed in ethanol for 10 min, and stained with Giemsa. […] The incidence of MN-PCEs was determined by scoring a total of 3000 PCE per animal and results were expressed as % MN [12].

[12] = tested on: HSD fed rats; experiment: In vivo efficacy study in high sucrose diet (HSD) steatosis rats; settings: HSD plus 30 mg/kg seven days
From the text: In vivo efficacy studies. After 1-week acclimation period, rats were randomly separated into two groups: control group (n=5) and high sucrose group (n=20). The control group was fed with a standard diet while the others consumed high sucrose diet (HSD). Sucrose was purchased from Sigma Chemical Co. (St Louis, MO, USA) and supplied at the dose of 10% in the drink water for two weeks.
After 2 weeks, five rats in the HSD group were randomly sacrificed for conformation of NAFLD model. Then, the remaining rats in the HSD group were separated into three sub-groups (n=5): HSD group, HSD plus BX-912 group and HSD plus JNK-IN-5A group. BX-912 and JNK-IN-5A were dissolved in DMSO and were orally administrated using oral gavage for one week (30 mg/kg/day). The HSD group were treated with vehicle solution only.
At the end of the experiment, rats were sacrificed after being anesthetized. Blood samples were collected from the abdominal aorta and centrifuged at 8000 rpm for 15 min at 4° C. The plasma was separated and stored at −80° C. until further analysis. Other internal organs, including the heart, adipose tissues, liver, kidney, muscle, intestine (duodenum, ileum, jejunum), pancreas, colon and stomach were immediately removed and then snap frozen in liquid nitrogen and stored at −80° C.; the liver was also fixed in 10% formaldehyde for histopathological examination.
Histopathological examination. The liver tissues were fixed in 10% buffered formaldehyde solution. After fixation, the tissues were passed through graded alcohol and xylene series and embedded in paraffin blocks. 5 micrometer thick sections were taken serially from the paraffin blocks. Histopathological changes were evaluated by performing hematoxylin eosin staining on the sections taken. Sections were evaluated according to histopathological findings as none (−), mild (+), moderate (++) and severe (+++).
Immunohistochemical examination. After deparaffinization, the slides were immersed in antigen retrieval solution (pH 6.0) and heated in microwave for 15 min to unmask the antigens. The sections were then dipped in 3% H2O2 for 10 min to block endogenous peroxidase activity. Protein block was dropped onto the sections, washed with PBS for 10 min. Primary antibodies (8-OH-dG, Cat No: sc-66036, Diluent Ratio: 1/100, Santa Cruz) were prepared and applied according to the usage conditions. Expose mouse and rabbit specific HRP/DAB detection IHC kit were used as follows: sections were incubated with goat anti-mouse antibody, then with streptavidin peroxidase, and finally with 3,3′ diamino benzidine+chromogen. Slides were counter stained with hematoxylin. Immunoreactivity in the sections were graded as none (−), mild (+), moderate (++) and severe (+++).

For `N#Cc1c(NC(=O)c2cccc3ccccc23)sc2c1CCN(CC(=O)Nc1ccnc(Cl)n1)C2` [PKL-B172], the activity at 10 µM ([1]; 168 h, HepG2, 10 μM, one week steatosis induce media, Control 100.00, read-out: TAG (%)) was 22%, the activity at 10 µM ([1]; HepG2, 168 h, ratio between TAG content and cell viability, Control 100.0, read-out: TAG/cell viability) was 40.9% and the viability at 1 week, 10 µM [2] was 53.7%. The viability at 2 days, 10 µM [3] was 62.7%, the IC50 ([4]; Homo sapiens, 48 h, HepG2, treatment for 2 days, 30 μM to 30 nM) was 13.3 µM and the “cell viability of HepG2 cells” value ([4]; especially in cancerous media) was “particularly low cell viability”. For the same compound, the “JNK1/2/3 p46 expression” value [5] was “not significantly altered”, the “Cell population G0/G1” value [6] was 16.7 and the “Cell population G2/M” value [6] was 73.2. For the same compound, the “Cell population S” value [6] was 2.7, the mitochondrial membrane potential [7] was “significantly decreased” and the inhibition at 1 µM [8] was 72.3%. It also gave an inhibition at 1 µM [9] of 60.7%.
In the case of `O=C(Nc1cccc(Nc2ncc(Br)c(NCCc3cnc[nH]3)n2)c1)N1CCCC1` [BX-912], the “histological structures of major organs” value [10] is reported as “normal histological structures”, the “side effects on the rats” value [10] is reported as “no side effects” and the “8-OH-dG expression in liver tissues” value ([10]; IHC) is reported as “negative”. The genotoxic potential [11] was “non-genotoxic”, the “frequencies of MNPCEs compared to Ctrl animals” value ([11]; p>0.05) was “not statistically different” and the “degeneration in hepatocytes in liver tissues” value ([12]; HSD 3w severe) was “Mild”. The “degeneration in renal tubule epithelium” value ([12]; HSD 3w severe) was “mild”, the “fattening in the parenchyma cells of pancreas tissues” value ([12]; HSD 3w severe) was “mild” and the “steatosis in hepatocytes in liver tissues” value ([12]; HSD 3w severe) was “moderate”. The “8-OH-dG expression in hepatocytes” value ([12]; HSD 3w strong) was “significantly decreased”.
